In patent US20260109714A1, “PYRIMIDINE-FUSED RING COMPOUND, AND PREPARATION METHOD THEREFOR AND USE THEREOF” (GENFLEET THERAPEUTICS (SHANGHAI) INC., priority 2022, published 2026):

Key:
[1] = system: AGS human gastric cancer cell line with KRAS G12D mutation; assay: Cell proliferation inhibition experiment, 3D CellTiter-Glo, AGS; type: cell-based; conditions: AGS cells, 3D spheroid, 5 days
Description: (§1) AsPC-1 was purchased from ATCC, Article No.: CRL-1682; AGS was purchased from ATCC, Article No.: CRL-1739; RPMI1640 was purchased from Gibco, Article No.: 11875-093 2235123; F12K was purchased from Gibco, Article No.: 21127-022; FBS was purchased from Gibco, Article No.: 10099-141C; the trypsin (containing EDTA) was purchased from Gibco, Article No.: 25200-072; CellTiter Glo-3D was purchased from Progema, Article No.: G9683; the 384-well spheroid plate was purchased from Corning, Article No.: 3830; the white-bottom opaque 384-well plate was purchased from Corning, Article No.: 3570; the cell counter was purchased from CHEMOMETEC, model: NC-200; the microplate reader was purchased from PerkinElmer, model: Envison;
(§2) AsPC-1, an endogenous human pancreatic cancer cell AsPC-1 with KRAS^G12D mutation, was cultured in RPMI-1640 medium containing 10% FBS. AGS, a human gastric cancer cell line with KRAS^G12D mutation, was cultured in F-12K medium containing 10% FBS. Cells in logarithmic growth period were digested with trypsin (containing EDTA), collected and counted. 800 AsPC-1 cells/well or 400 […] were inoculated in a 384-well spheroid plate, and cultured overnight in an incubator with 5% CO2 to establish a 3D cell model. 1000× compound stock solutions with gradient concentrations of 3.16 times were prepared with DMSO, and 100-fold diluted to 10× compound stock solutions with the culture medium. The 10× compound stock solution was added to each cell culture well on the second day after cell inoculation, to give a final concentration of 1× and DMSO content of 0.1%. DMSO was used as the control, and the culture medium was used as the blank. After the compound was added, the cells were cultured for 5 days. 30 μl CellTiter-Glo working solution was added to each well, and mixed uniformly. The cells were incubated for 30 min, and allowed to stand at room temperature for 30 min. 40 μl of the mixture was transferred to a white-bottom opaque 384-well plate, and the luminescence was read on a microplate reader. The inhibition rate on cell proliferation was calculated by a formula: IR (%)=(RLU of control−RLU of compound)/(RLU of control−RLU of blank)×100%. The gradient concentrations of the compound and the corresponding inhibition rates were fitted by using XLFit four-parameter method, and the IC50 value was calculated. […] The results of some exemplary compounds are shown in Table 2 below (—means not tested).

[2] = system: AsPC-1 human pancreatic cancer cell with KRAS G12D mutation; assay: Cell proliferation inhibition experiment, 3D CellTiter-Glo, AsPC-1; type: cell-based; conditions: AsPC-1 cells, 3D spheroid, 5 days
Description: as §1, §2

AGS p-ERK = assay: Cell assay for p-ERK (HTRF, Advance ERK phospho-T202/Y204 kit); type: cell-based, human; conditions: AGS cells (KRAS G12D), 3 hrs with compound, inhibition of p-ERK level
Method: AGS was purchased from ATCC, Article No.: CRL-1739; F12K was purchased from Gibco, Article No.: 21127-022; FBS was purchased from Gibco, Article No.: 10099-141C; the trypsin (containing EDTA) was purchased from Gibco, Article No.: 25200-072; DMSO was purchased from VWRAMRESCO, Article No.: 0231-500ML; the 96-well cell culture plate was purchased from Corning, Article No.: 3599; the white-bottom opaque 96-well plate was purchased from Cisbio, Article No.: 66PL96025; Advance ERK phospho-T202/Y204 kit was purchased from Cisbio, Article No.: 64AERPEH; the cell counter was purchased from CHEMOMETEC, model: NC-200; the microplate reader was purchased from PerkinElmer, model: Envison.
AGS, an endogenous human gastric adenocarcinoma cell line with KRAS^G12D mutation, was cultured in F12K+10% FBS medium. On the first day of the experiment, cells in logarithmic growth period were digested with trypsin (containing EDTA), collected and counted, and about 20,000 cells/well were inoculated in a 96-well cell culture plate and cultured overnight in an incubator with 5% CO2. 1000× compound stock solutions with gradient concentrations of 3.16 times were prepared with DMSO, and 200-fold diluted to 5× compound stock solutions with the above culture medium. The 5× compound stock solution was added to each cell culture well on the second day after cell inoculation, to give a final concentration of 1× and DMSO content of 0.1%. DMSO was used as experimental control. After adding the compound, the cells were continuously cultured for 3 hrs. Then, the culture medium in the well was removed, and 50 μl/well of cell lysis buffer (from Advanced ERK phospho-T202/Y204 kit, the same hereinafter) was added, and mixed uniformly. The cells were cultured for 30 min. Then 16 μl of the mixture was transferred to a white-bottom opaque 96-well plate, and 16 μl of the cell lysis buffer was added to an additional well and used as a blank. After that, 4 μl of p-ERK HTRF antibody mixed solution (from Advanced ERK Phos Pho-T202/Y204 Kit) was added to each well. After incubation for 4 hrs, the fluorescence value (RLU) of HTRF was read on a microplate reader. The inhibition rate of the compound on p-ERK level was calculated by the formula IR (%)=(RLU of control−RLU of compound)/(RLU of control−RLU of blank)×100%. The compound concentration and the corresponding inhibition rate on p-ERK level in the cells were fitted by using Prism 8 four-parameter method, and the IC50 value was calculated.

| IC50 (AGS p-ERK) [nM] | IC50 [1] [nM] | IC50 [2] [nM] | Compound | IC50 ([1]; Homo sapiens, 120 h) [nM] | IC50 ([2]; Homo sapiens, ASPC1, 120 h) [nM] | IC50 (AGS p-ERK; Homo sapiens) [nM] |
| --- | --- | --- | --- | --- | --- | --- |
|  |  |  | C#Cc1c(F)ccc2cccc(-c3nc4c5c(nc(OC[C@]67CCCN6CCC7=C)nc5c3F)N3C[C@H]5CC[C@H](N5)[C@H]3[C@@H](C(F)F)O4)c12 [Z736, (5S,5aS,6S,9R)-5-(difluoromethyl)-2-(8-ethynyl-7-fluoronaphthalen-1-yl)-1-fluoro-12-(((R)-1-methylenetetrahydro-1H-pyrrolizin-7a(5H)-yl)methoxy)-5a,6,7,8,9,10-hexahydro-5H-4-oxa-3,10a,11,13,14-pentaaza-6,9-methanonaphtho[1,8-ab]heptene] | 389 | 254 |  |
|  |  |  | C#Cc1c(F)ccc2cccc(-c3nc4c5c(nc(OC[C@]67CCCN6CC=C7C)nc5c3F)N3C[C@H]5CC[C@H](N5)[C@H]3[C@H](C)O4)c12 [Z749] | 7.13 | 11.5 | 1.91 |
|  |  |  | C[C@@H]1Oc2nc(-c3cc(N)cc(Cl)c3C(F)(F)F)cc3nc(OC[C@@]45CCCN4CC(=C(F)F)C5)nc(c23)N2C[C@H]3CC[C@H](N3)[C@@H]12 [Z1085, 3-chloro-5-((5S,5aS,6S,9R)-12-(((S)-2-(difluoromethylene)tetrahydro-1H-pyrrolizin-7a(5H)-yl)methoxy)-5-methyl-5a,6,7,8,9,10-hexahydro-5H-4-oxa-3,10a,11,13,14-pentaaza-6,9-methanonaphtho[1,8-ab]hepten-2-yl)-4-(trifluoromethyl) aniline] | 0.88 | 3.04 | 0.78 |
|  |  |  | C#Cc1cccc2cc(N)cc(-c3nc4c5c(nc(OC[C@]67CCCN6CCC7=C(F)F)nc5c3F)N3C[C@H]5CC[C@H](N5)[C@H]3[C@H](C)O4)c12 [Z959, 4-((5S,5aS,6S,9R)-12-(((R)-1-(difluoromethylene)tetrahydro-1H-pyrrolizin-7a(5H)-yl)methoxy)-1-fluoro-5-methyl-5a,6,7,8,9,10-hexahydro-5H-4-oxa-3,10a,11,13,14-pentaaza-6,9-methanonaphtho[1,8-ab]hepten-2-yl)-5-ethynylnaphthalen-2-amine] | 7.27 | 7.21 | 1.59 |
|  |  |  | C#Cc1cccc2cc(N)cc(-c3nc4c5c(nc(OCC67CCCN6CC(=C(F)F)C7)nc5c3F)N3C[C@H]5CC[C@H](N5)[C@H]3[C@H](C)O4)c12 (stereo partly drawn) [Z747] |  |  | 0.37 |
| 50.2 | 73.3 | 202 | C#Cc1cccc2cccc(-c3nc4c5c(nc(OC[C@@]67CCCN6C[C@H](F)C7)nc5c3F)N3C[C@H]5CC[C@H](N5)[C@H]3C(CC)O4)c12 (stereo partly drawn) [Z387, (5S,5aS,6S,9R)-5-ethyl-2-(8-alkynylnaphthalen-1-yl)-1-fluoro-12-(((2R,7aS)-2-fluorotetrahydro-1H-pyrrolizin-7a(5H)-yl)methoxy)-5a,6,7,8,9,10-hexahydro-5H-4-oxy-3,10a,11,13,14-pentaaza-6,9-methanonaphtho[1,8-ab]heptene] |  |  |  |
|  |  |  | C[C@@H]1Oc2nc(-c3cc(N)cc(Cl)c3C(F)(F)F)c(F)c3nc(OC[C@]45CCCN4CC(F)(F)C5)nc(c23)N2C[C@H]3CC[C@H](N3)[C@@H]12 [Z743, 3-chloro-5-((5S,5aS,6S,9R)-12-(((R)-2,2-difluorotetrahydro-1H-pyrrolizin-7a(5H)-yl)methoxy)-1-fluoro-5-methyl-5a,6,7,8,9,10-hexahydro-5H-4-oxa-3,10a,11,13,14-pentaaza-6,9-methanonaphtho[1,8-ab]hepten-2-yl)-4-(trifluoromethyl) aniline] | 1.95 | 2.16 | 0.84 |
| 15.3 | 34 | 44.2 | C[C@@H]1Oc2nc(-c3cc(N)cc4cccc(Cl)c34)c(F)c3nc(OC[C@]45CCCN4CC(F)(F)C5)nc(c23)N2C[C@H]3CC[C@H](N3)[C@@H]12 [Z737, 5-chloro-4-((5S,5aS,6S,9R)-12-(((R)-2,2-difluorotetrahydro-1H-pyrrolizin-7a(5H)-yl)methoxy)-1-fluoro-5-methyl-5a,6,7,8,9,10-hexahydro-5H-4-oxa-3,10a,11,13,14-pentaaza-6,9-methanonaphtho[1,8-ab]hepten-2-yl)naphthalen-2-amine] |  |  |  |
|  |  |  | C=C1CN2CCCC2(COc2nc3c4c(nc(-c5cccc6cccc(Cl)c56)c(F)c4n2)OC(CC)[C@@H]2[C@@H]4CC[C@H](CN32)N4)C1 (stereo partly drawn) [Z596, (5S,5aS,6S,9R)-2-(8-chloronaphthalen-1-yl)-5-ethyl-1-fluoro-12-((2-methylenetetrahydro-1H-pyrrolizin-7a(5H)-yl)methoxy)-5a,6,7,8,9,10-hexahydro-5H-4-oxy-3,10a,11,13,14-pentaaza-6,9-methanonaphtho[1,8-ab]heptene] | 268 | 411 |  |
|  |  |  | [2H]C([2H])([2H])[C@@H]1Oc2nc(-c3cc(N)cc(Cl)c3C(F)(F)F)c(F)c3nc(OC[C@]45CCCN4CCC5=C(F)F)nc(c23)N2C[C@H]3CC[C@H](N3)[C@@H]12 [Z1072, 3-chloro-5-((5S,5aS,6S,9R)-12-(((R)-1-(difluoromethylene)tetrahydro-1H-pyrrolizin-7a(5H)-yl)methoxy)-1-fluoro-5-(methyl-d3)-5a,6,7,8,9,10-hexahydro-5H-4-oxo-3,10a,11,13,14-pentaaza-6,9-methanonaphtho[1,8-ab]hepten-2-yl)-4-(trifluoromethyl) aniline] | 0.5 | 2.26 |  |
|  |  |  | C#Cc1c(F)ccc2cccc(-c3nc4c5c(nc(OC[C@]67CCCN6CCC7=C)nc5c3F)N3C[C@H]5CC[C@H](N5)[C@H]3C(CF)O4)c12 (stereo partly drawn) [Z746, (5aS,6S,9R)-2-(8-ethynyl-7-fluoronaphthalen-1-yl)-1-fluoro-5-(fluoromethyl)-12-(((R)-1-methylenetetrahydro-1H-pyrrolizin-7a(5H)-yl)methoxy)-5a,6,7,8,9,10-hexahydro-5H-4-oxa-3,10a,11,13,14-pentaaza-6,9-methanonaphtho[1,8-ab]heptene] |  |  | 17.1 |

| Compound | IC50 (AGS p-ERK) [nM] | IC50 [1] [nM] | IC50 [2] [nM] | IC50 ([1]; Homo sapiens, 120 h) [nM] | IC50 ([2]; Homo sapiens, ASPC1, 120 h) [nM] | IC50 (AGS p-ERK; Homo sapiens) [nM] |
| --- | --- | --- | --- | --- | --- | --- |
| 6-((5S,5aS,6S,9R)-12-(((R)-1-(difluoromethylene)tetrahydro-1H-pyrrolizin-7a(5H)-yl)methoxy)-1-fluoro-5-(methyl-d3)-5a,6,7,8,9,10-hexahydro-5H-4-oxa-3,10a,11,13,14-pentaaza-6,9-methanonaphtho[1,8-ab]hepten-2-yl)-4-methyl-5-(trifluoromethyl)pyridine-2-amine [Z1295] | 13.9 |  |  |  |  |  |
